The target of one assay is T1, phosphorylated GCN2 (Homo sapiens, UniProt Q9P2K8).
T1 construct: endogenous in cells; host or cells: HT-1080
The assay is described as follows: Inhibition of phosphorylated GCN2 under amino acid deficiency in HT-1080 cells, Western blot. It is filed as cell-based. The settings on record: compound 50 nM, 24 hours; for Phospho-GCN2 inhibition: symbols ◯ / X not defined.

Assay [1] deals with recombinant human PKR protein (Homo sapiens, UniProt P19525). Briefly: Protein kinase R (PKR) inhibitory capacity, 33P-ATP filter assay. It is filed as biochemical. As to conditions: 15 uM [gamma-33P-ATP], 40 minutes, room temperature. On the procedure:
<Experimental Example 4> Evaluation of Protein Kinase R (PKR) Inhibitory Capacity
A recombinant human PKR protein was mixed with the compound in a reaction solution (8 mM MOPS pH 7.0, 0.2 mM EDTA, 20 uM RSRSRSRSRSRSRSR, 10 mM Magnesium acetate, 15 uM [gamma-33P-ATP]) and reacted at room temperature for 40 minutes. Then, the reaction was terminated by adding phosphoric acid (0.5%) to the reaction mixture, and 10 ul of the reaction solution was dropped onto a P30 filter. The filter was washed four times in a 0.425% phosphoric acid solution for 4 minutes, then washed once more in methanol, dried, and the PKR activity was measured by scintillation counting. […] The compound was diluted by 1/3 from the highest concentration of 1 uM and treated with a total of 9 concentrations to evaluate the degree of inhibition.

Assay [2] concerns the target recombinant human HRI protein (Homo sapiens, UniProt Q9BQI3). Briefly: eIF2-alpha kinase heme-regulated inhibitor (HRI) inhibitory capacity, 33P-ATP filter assay. In kind it is biochemical. As to conditions: 45 uM [gamma-33P-ATP], 40 minutes, room temperature. As for the experimental part:
<Experimental Example 3> Evaluation of eIF2-Alpha Kinase Heme-Regulated Inhibitor (HRI) Inhibitory Capacity
A recombinant human HRI protein was mixed with the compound in a reaction solution (50 mM Tris/HCl pH 7.5, 0.04 mM EDTA, 300 uM RSRSRSRSRSRSRSR, 10 mM Magnesium acetate, 45 uM [gamma-33P-ATP]) and reacted at room temperature for 40 minutes. Then, the reaction was terminated by adding phosphoric acid (0.5%) to the reaction mixture, and […] of the reaction solution was dropped onto a P30 filter. The filter was washed four times in a 0.425% phosphoric acid solution for 4 minutes, then […] washed once more in methanol, dried, and the HRI activity was measured by scintillation counting. […] The compound was diluted by 1/3 from the highest concentration of 1 uM and treated with a total of 9 concentrations to evaluate the degree of inhibition.

For assay [3], the target named is recombinant human GCN2 protein (Homo sapiens, UniProt Q9P2K8). Briefly: General control nonderepressible 2 (GCN2) inhibitory capacity, 33P-ATP filter assay. In kind it is biochemical. The settings on record: recombinant human GCN2, 70 uM [gamma-33P-ATP], 40 minutes, room temperature.
recombinant human GCN2 protein, sequence (Q9P2K8 whole entry): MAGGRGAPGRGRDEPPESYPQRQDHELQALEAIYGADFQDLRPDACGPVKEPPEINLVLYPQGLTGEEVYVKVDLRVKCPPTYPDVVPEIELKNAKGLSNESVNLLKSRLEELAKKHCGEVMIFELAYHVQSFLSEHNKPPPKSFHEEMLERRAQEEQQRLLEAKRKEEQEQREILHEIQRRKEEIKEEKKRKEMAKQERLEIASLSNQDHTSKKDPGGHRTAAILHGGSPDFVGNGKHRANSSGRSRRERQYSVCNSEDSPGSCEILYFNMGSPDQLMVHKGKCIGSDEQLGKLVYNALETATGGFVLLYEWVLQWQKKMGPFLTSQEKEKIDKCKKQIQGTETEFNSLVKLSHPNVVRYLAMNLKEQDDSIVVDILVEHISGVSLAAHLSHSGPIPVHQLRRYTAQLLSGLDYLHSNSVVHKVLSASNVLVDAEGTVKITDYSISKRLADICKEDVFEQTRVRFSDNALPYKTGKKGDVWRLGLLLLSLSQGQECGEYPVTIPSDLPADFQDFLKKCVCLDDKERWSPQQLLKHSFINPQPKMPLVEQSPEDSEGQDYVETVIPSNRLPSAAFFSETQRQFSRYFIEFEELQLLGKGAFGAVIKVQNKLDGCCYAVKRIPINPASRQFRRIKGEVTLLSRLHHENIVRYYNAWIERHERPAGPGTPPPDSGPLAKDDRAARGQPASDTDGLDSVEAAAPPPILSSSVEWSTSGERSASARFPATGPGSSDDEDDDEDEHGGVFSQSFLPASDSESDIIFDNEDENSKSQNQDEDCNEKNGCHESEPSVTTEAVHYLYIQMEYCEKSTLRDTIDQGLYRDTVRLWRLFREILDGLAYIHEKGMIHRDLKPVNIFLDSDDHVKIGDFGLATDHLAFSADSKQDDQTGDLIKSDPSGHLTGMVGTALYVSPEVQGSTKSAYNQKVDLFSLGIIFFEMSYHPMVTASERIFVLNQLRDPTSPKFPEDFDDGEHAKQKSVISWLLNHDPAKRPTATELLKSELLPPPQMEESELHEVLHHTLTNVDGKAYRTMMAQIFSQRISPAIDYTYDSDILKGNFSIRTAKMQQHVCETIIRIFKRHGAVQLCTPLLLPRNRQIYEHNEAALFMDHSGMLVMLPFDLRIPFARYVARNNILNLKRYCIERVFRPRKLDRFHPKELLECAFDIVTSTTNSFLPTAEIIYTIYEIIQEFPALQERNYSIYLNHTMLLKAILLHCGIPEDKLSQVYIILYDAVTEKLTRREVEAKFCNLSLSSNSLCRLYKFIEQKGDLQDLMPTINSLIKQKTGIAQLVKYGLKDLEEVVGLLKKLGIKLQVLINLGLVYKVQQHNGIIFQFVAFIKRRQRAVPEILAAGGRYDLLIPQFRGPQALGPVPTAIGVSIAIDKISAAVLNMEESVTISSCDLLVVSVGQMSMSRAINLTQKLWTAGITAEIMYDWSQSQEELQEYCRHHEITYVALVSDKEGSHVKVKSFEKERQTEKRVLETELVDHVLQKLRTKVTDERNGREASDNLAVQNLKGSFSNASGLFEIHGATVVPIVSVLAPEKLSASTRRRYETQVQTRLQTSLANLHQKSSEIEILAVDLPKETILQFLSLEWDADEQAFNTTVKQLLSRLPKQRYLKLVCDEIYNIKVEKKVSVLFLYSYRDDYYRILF

The term IC50 denotes the concentration that inhibits the measured activity by half.

Structures are written as SMILES.

recombinant human HRI protein, sequence (Q9BQI3 whole entry): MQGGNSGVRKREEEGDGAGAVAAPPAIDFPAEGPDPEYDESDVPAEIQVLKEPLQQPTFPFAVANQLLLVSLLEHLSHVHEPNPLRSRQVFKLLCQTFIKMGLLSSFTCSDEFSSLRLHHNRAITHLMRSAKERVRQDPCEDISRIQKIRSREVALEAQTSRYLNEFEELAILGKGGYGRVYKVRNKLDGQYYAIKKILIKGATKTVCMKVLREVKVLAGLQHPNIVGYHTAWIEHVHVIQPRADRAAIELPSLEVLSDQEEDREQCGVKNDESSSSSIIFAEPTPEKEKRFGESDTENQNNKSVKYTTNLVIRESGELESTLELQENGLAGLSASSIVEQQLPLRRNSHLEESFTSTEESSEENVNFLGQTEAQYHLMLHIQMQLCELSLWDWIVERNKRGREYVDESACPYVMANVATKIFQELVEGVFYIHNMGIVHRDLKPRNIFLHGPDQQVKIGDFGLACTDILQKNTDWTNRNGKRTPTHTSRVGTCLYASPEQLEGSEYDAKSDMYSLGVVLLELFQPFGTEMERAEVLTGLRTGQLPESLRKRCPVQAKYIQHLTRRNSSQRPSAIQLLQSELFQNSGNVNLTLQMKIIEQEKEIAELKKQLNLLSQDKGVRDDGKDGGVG
recombinant human PKR protein, sequence (P19525 whole entry): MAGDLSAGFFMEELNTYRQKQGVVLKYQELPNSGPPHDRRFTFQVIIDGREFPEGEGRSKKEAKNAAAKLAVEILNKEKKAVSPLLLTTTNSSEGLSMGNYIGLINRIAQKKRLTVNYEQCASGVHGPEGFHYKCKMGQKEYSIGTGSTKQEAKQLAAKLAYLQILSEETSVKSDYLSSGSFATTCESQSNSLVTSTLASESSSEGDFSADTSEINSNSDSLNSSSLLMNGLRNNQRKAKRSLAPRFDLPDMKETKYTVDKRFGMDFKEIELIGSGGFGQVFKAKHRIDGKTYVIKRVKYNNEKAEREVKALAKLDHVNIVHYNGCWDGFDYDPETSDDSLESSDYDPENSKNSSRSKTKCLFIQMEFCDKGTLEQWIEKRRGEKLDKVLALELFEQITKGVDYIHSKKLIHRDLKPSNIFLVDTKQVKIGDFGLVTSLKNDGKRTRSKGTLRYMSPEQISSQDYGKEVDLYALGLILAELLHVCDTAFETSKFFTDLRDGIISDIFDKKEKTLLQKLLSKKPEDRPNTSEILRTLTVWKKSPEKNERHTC
T1 sequence (Q9P2K8 whole entry): as the sequence (Q9P2K8 whole entry) above

Turning to `COc1ncc(Cl)cc1S(=O)(=O)Nc1ccc(F)c(-n2cc(C(F)F)c3nc(N)ncc3c2=O)c1F` [Example 22, N-(3-(2-amino-8-(difluoromethyl)-5-oxopirido[4,3-d]pyrimidin-6(5H)-yl)-2,4-difluorophenyl)-5-chloro-2-methoxypyridine-3-sulfonamide], the “inhibitory effect on the phosphorylated GCN2” value (shortened to “inhibitory effect”) at phosphorylated GCN2 is given as “excellent inhibitory effects”. Moreover, the Phospho-GCN2 inhibition result at phosphorylated GCN2 is “◯”. Also, the half-maximal inhibitory concentration (IC50) in assay [1] was 300 to 1000 nM; in assay [2], less than 100 nM; in assay [3], less than 100 nM.
In the case of `CNc1ncc2c(=O)n(-c3c(F)ccc(NS(=O)(=O)c4cc(Cl)cnc4OC)c3F)ccc2n1` [Example 32, 5-chloro-N-(2,4-difluoro-3-(2-(methylamino)-5-oxopirido[4,3-d]pyrimidin-6(5H)-yl)phenyl)-2-methoxypyridine-3-sulfonamide], the “inhibitory effect” value against phosphorylated GCN2 is recorded as “excellent inhibitory effect”. Also, the Phospho-GCN2 inhibition entry at phosphorylated GCN2 was “◯”. Also, the IC50 in assay [1] is greater than 1000 nM; in assay [2], less than 100 nM; in assay [3] it was less than 100 nM.
`Nc1ncc2c(=O)n(-c3c(F)ccc(NS(=O)(=O)c4cc(Cl)cnc4Cl)c3F)ccc2n1` [Example 27, N-(3-(2-amino-5-oxopirido[4,3-d]pyrimidin-6(5H)-yl)-2,4-difluorophenyl)-2,5-dichloropyridine-3-sulfonamide]: the “inhibitory effect” value against phosphorylated GCN2 was “excellent inhibitory effect”. For the same compound, the Phospho-GCN2 inhibition result at phosphorylated GCN2 is listed as “◯”. The half-maximal inhibitory concentration (IC50) in assay [1] is greater than 1000 nM; in assay [2], less than 100 nM; in assay [3], less than 100 nM.
Consider `COc1ncc(Cl)cc1S(=O)(=O)Nc1ccc(F)c(-n2c(=O)c3cnc(N)nc3n(C)c2=O)c1F` [Example 44, N-(3-(7-amino-1-methyl-2,4-dioxo-1,4-dihydropyrimido[4,5-d]pyrimidin-3(2H)-yl)-2,4-difluorophenyl)-5-chloro-2-methoxypyridine-3-sulfonamide], for which, at phosphorylated GCN2, the “inhibitory effect” value is listed as “excellent inhibitory effects”. The Phospho-GCN2 inhibition entry at phosphorylated GCN2 is given as “◯”. Besides, the IC50 in assay [1] was 300 to 1000 nM; in assay [2] it was less than 100 nM; in assay [3] it was 100 to 300 nM.
The corresponding values for `COc1ncc(Br)cc1S(=O)(=O)Nc1ccc(F)c(-n2c(=O)c3cnc(N)nc3n(C)c2=O)c1F` [Example 46, N-(3-(7-amino-1-methyl-2,4-dioxo-1,4-dihydropyrimido[4,5-d]pyrimidin-3(2H)-yl)-2,4-difluorophenyl)-5-bromo-2-methoxypyridine-3-sulfonamide] are “excellent inhibitory effects”, “◯”, 300 to 1000 nM, 100 to 300 nM and less than 100 nM.
The corresponding values for `Nc1ncc2c(=O)n(-c3c(F)ccc(NS(=O)(=O)c4cccc5ccccc45)c3F)ccc2n1` [Example 29, N-(3-(2-amino-5-oxopirido[4,3-d]pyrimidin-6(5H)-yl)-2,4-difluorophenyl)naphthalene-1-sulfonamide] are “excellent inhibitory effects”, “◯”, 100 to 300 nM, less than 100 nM and less than 100 nM.
